# Source: publication PMC8586955, “Interaction Study between ESIPT Fluorescent Lipophile-Based Benzazoles and BSA” (Molecules, 2021)
# Biological target: T1, bovine serum albumin (BSA) (Bos taurus, UniProt P02769)
# T1 construct: gene ALB
# Test: BSA intrinsic fluorescence quenching titration, ex […] nm
# Format: binding
# Details: double-log; PBS pH 7.2, 25 °C, BSA 11 µM, ligand 0-20 µM
# T1 sequence (P02769 25-607): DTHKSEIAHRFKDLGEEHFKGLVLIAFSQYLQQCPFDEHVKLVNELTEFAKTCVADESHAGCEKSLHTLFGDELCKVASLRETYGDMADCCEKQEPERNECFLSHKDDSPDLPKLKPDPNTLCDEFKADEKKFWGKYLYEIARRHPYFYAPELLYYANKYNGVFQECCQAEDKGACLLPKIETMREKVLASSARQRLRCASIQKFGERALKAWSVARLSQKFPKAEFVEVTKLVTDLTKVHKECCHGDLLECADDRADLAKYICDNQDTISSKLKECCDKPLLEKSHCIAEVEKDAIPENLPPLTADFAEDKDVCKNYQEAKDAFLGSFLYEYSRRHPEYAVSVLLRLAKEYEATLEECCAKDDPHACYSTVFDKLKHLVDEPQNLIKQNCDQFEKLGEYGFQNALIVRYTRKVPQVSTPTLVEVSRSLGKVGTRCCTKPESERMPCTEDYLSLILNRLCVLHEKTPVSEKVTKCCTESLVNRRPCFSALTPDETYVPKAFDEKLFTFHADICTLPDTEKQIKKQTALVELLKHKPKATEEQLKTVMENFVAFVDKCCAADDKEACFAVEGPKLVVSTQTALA
row,SMILES,KA (×10^4 M^-1)
1,"CCCCNCc1cc(C)c(O)c(-c2nc3ccccc3o2)c1 [compound 12, benzazole 12]",0.61 ×10^4 M^−1
2,"CCCCCCCCCCCCNCc1cc(C)c(O)c(-c2nc3ccccc3o2)c1 [compound 13, benzazole 13]",0.74 ×10^4 M^−1
3,"CCCCCCCCCCCCCCCCCCNCc1cc(C)c(O)c(-c2nc3ccccc3o2)c1 [compound 14, benzazole 14]",0.59 ×10^4 M^−1
4,"CCCCNCc1cc(C)c(O)c(-c2nc3ccccc3s2)c1 [compound 15, benzazole 15]",0.73 ×10^4 M^−1
5,"CCCCCCCCCCCCNCc1cc(C)c(O)c(-c2nc3ccccc3s2)c1 [compound 16, benzazole 16]",0.79 ×10^4 M^−1
6,"CCCCCCCCCCCCCCCCCCNCc1cc(C)c(O)c(-c2nc3ccccc3s2)c1 [compound 17, benzazole 17]",0.69 ×10^4 M^−1
